The values that follow come from patent publication US20240398823A1, “DUAL INHIBITOR OF HISTONE DEACETYLASE 6 AND HEAT SHOCK PROTEIN 90” (TAIPEI MEDICAL UNIVERSITY, priority 2021, published 2024).

The subject of data set [1] is HSP90 client proteins (HSP70, Src, AKT, Rb, FAK). Put plainly: Western blot of HSP70 and HSP90 client proteins in HCT116. It is filed as cell-based, human. The following applies: HCT116, 0.25-1 μM, 48 hours. How it is done: The ability of α-tubulin and histone H3 acetylation was measured.
(§1) The effects of the HSP90/HDAC6 dual inhibitors as described in Synthesis Examples (such as Compounds 63, 64, and 66 to 76) on several factors were evaluated. Cells were lysed in RIPA buffer (Thermo Fisher Scientific, Wal-tham, MA, USA) and protease inhibitor (Roche, Basel, CH). Sample were further separated in 8% or 15% SDS-PAGE and transferred to nitrocellulose membrane and blocked with 5% skim milk (w/v in PBS). Nitrocellulose membranes were then incubated with primary antibodies against the following antigens: HSP90, Src, AKT, Rb, phosphorylated Rb (p-Rb), FAK, HSP70, α-tubulin acetylation, acetyl histone H3, phosphorylated STAT1 (p-STAT1), STAT1 (Cell signaling, Danvers, MA, USA), α-tubulin, Histone H3 (Genetex, Irvine, USA), IDO (Santa Cruz Biotechnology Dallas, TX, USA) and PD-L1 (Novus, Littleton, CO, USA) at 4° C. for overnight. The target proteins were visualized by using HRP-conjugated secondary antibodies (Jackson ImmunoResearch Laboratories, West Grove, PA, USA) and enhanced chemiluminescence kit (Thermo Fisher Scientific, Waltham, MA, U.S.A.).
The ability of Compound 75 on the acetylation of α-tubulin and histone H3 was evaluated. HCT116 cells were administered with Compound 75 for 6 hours and analyzed by western blot. […] Next, whether Compound 75 inhibited HSP90 was evaluated. […]

Data set [2] relates to colorectal cancer tumors (CT26). Nature of the data set: CT26 tumor model, Compound 75 and Anti-PD1 alone and combined. The data set is classed as in vivo.
Data set [3] has as its system central memory T cells (TCM) in the spleen. Put plainly: Central memory T cells in spleen by flow cytometry. The data set is classed as in vivo, mouse. On the procedure: (§2) Stage 1: CT26 was injected subcutaneously into the left dorsum of immunocompetent mice (BALB/c), and Compound 75 treatment was started after 3 days, administered intravenously at a dose of 50 mg/kg every two days (7 doses in total). After tumor removal, tumor cells were isolated for in vitro culture (untreated tumor control-tumor; Compound 75-treated tumor: Compound 75-tumor). Stage 2: On day 17, the isolated tumor cells were injected subcutaneously into the right side of the mouse back and the mice were sacrificed on day 37 (as shown in FIG. 14A). […] Data are mean t S.E.M. N values greater than 4.

The next data set concerns the target T1, HSP90β (Homo sapiens, UniProt P08238).
T1 construct: Reaction Biology Corporation (ran the assay as a service)
Put plainly: HSP90 inhibition assay, FITC-geldanamycin competition fluorescence polarization, HSP90β. The data set is classed as binding. To be noted: FITC-GM competition.

Data set [4] can be described thus: Toxicity, body weight and blood counts in BALB/c mice with CT26 tumors. It is filed as in vivo.
The next data set has as its system CT26 tumor recurrence. Put plainly: CT26 tumor recurrence after tumor removal and re-inoculation. It is filed as in vivo, mouse. The following applies: 50 mg/kg every two days, day 37. How it is done:
as §2
Whether Compound 75 induces the performance of memory T cells to prevent tumor recurrence was further investigated. Mouse colorectal cancer cells (CT26) were inoculated into the back of immunocompetent mice (BALB/c) and gave control or Compound 75 (50 mg/kg) every two days after 3 days, and removed the tumors on day 14. The cancer cells were isolated and cultured in vitro. The isolated cancer cells were re-injected into the back of the mice on day 17 and the mice were sacrificed on day 37 (FIG. 14A). […] However, in the control group (control/control-tumor), 4 out of 5 cancer recurrences occurred and the tumors were larger (FIGS. 14B, 14C and 14D).

The next data set deals with HCT116. Put plainly: MTT assay, survival of human colorectal cancer cells HCT116. The data set is classed as cell-based. The following applies: HCT-116, 48 h, mean ± SD, read-out: Human cell lines HCT116 IC50(μM ± SD). On the procedure:
The effects on cell viability of the HSP90/HDAC6 dual inhibitors as described in Synthesis Examples (such as Compounds 63, 64, and 66 to 76) were evaluated. Cells were seeded in 96-well plates (5000 cells/well). The next day, the serially diluted drugs were added into the wells and incubated at 37° C. for 48 h. Cell viability was measured by the MTT assay and is expressed as percentages of surviving drug-treated cells relative to untreated control cells. The IC50 was calculated by non-linear regression analysis.
The inhibitory effect of the HSP90/HDAC6 dual inhibitors as described in Synthesis Examples on the survival rate of human colorectal cancer cells HCT116 is evaluated using MTT assay.

The subject of another data set is serum TGF-β and IL-2. Put plainly: Serum cytokines in CT26 tumor mice. To be noted: day 25, 10, 25, 50 mg/kg. The data set is classed as in vivo, mouse. How it is done:
FIGS. 11A and 11B show effects of Compound 75 on peripheral blood cytokines. BALB/c mice with CT26 tumors were treated with 10, 25 and 50 mg/kg of Compound 75 every two days and sacrificed on day 25. Data are expressed as mean t S.D. N values greater than 3. *P<0.05; ** P<0.01; *** P<0.001, compared to the control group.
The reasons for the decrease of Treg in blood were further investigated.

In data set [5] the test system is PD-L1 and IDO expression in HCT116 and CT26 cell lines. Put plainly: Western blot of IFN-γ-induced PD-L1 and IDO, STAT1 pathway, in HCT116 and CT26. The data set is classed as cell-based, human; mouse. The following applies: HCT116 and CT26, 48 hours, via p-STAT1 and STAT1. On the procedure: The cells were tested in 6-well plates with 32×10^4 cells/well and co-treated with Compound 75 for 48 hours and analyzed by flow cytometry. Bar, SD.
as §1
Using western blot, whether Compound 75 reduced […]-induced PD-L1 and IDO performance by inhibiting STAT1 pathway was evaluated.

The target in another data set is T2, HDAC3 (Homo sapiens, UniProt O15379).
T2 construct: Reaction Biology Corporation (ran the assay as a service)
T2 sequence (O15379 whole entry): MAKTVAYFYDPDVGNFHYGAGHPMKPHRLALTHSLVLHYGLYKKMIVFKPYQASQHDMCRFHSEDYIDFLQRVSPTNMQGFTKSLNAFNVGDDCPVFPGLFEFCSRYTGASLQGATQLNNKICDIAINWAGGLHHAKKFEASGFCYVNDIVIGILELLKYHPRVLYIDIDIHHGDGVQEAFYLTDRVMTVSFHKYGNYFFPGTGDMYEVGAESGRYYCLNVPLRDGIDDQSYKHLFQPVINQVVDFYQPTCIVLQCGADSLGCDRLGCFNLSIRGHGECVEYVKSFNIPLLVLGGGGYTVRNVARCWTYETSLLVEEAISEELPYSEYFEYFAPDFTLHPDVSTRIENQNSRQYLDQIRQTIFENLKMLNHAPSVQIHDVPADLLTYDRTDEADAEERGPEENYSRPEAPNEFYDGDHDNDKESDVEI
T2 sequence (Q9Y618 395-489 partner limits assumed): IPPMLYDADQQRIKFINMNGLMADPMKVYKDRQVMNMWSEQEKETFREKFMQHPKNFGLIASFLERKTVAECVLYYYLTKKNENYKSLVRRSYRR
Nature of the data set: HDAC enzymes inhibition assay (Reaction Biology), HDAC3. The data set is classed as biochemical. To be noted: 10-dose, 3-fold dilution from 10 μM, single experiment.

Where [6] appears, read: Anti-PD1 combination study, Compound 75 50 mg/kg/2 days.
The mark [7] stands for this setting: CT26 in Balb/c, 10, 25, 50 mg/kg i.v. every two days.

T1 sequence (P08238 whole entry): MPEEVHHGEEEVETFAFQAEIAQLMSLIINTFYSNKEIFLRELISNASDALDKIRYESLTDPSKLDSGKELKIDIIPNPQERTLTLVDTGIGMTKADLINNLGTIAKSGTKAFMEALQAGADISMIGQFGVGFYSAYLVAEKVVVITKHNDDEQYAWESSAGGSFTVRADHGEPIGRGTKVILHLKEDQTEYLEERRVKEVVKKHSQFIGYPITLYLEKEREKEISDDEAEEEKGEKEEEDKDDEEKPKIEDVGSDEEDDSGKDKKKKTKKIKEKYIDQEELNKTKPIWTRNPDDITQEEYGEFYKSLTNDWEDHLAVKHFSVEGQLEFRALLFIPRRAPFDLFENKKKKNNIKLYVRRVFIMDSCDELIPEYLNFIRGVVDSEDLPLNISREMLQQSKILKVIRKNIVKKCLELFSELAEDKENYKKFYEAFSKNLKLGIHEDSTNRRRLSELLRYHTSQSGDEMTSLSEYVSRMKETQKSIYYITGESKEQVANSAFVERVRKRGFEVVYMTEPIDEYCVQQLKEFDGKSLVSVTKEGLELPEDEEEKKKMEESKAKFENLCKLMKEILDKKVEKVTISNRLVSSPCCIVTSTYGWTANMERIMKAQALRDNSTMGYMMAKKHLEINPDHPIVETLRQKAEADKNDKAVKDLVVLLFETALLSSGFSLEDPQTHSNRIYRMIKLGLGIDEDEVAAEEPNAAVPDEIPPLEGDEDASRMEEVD

For `COc1ccc(N(Cc2ccc(C(=O)NO)cc2)C(=O)c2cc(C(C)C)c(O)cc2O)cc1` [Compound 75, 2,4-Dihydroxy-N-(4-hydroxycarbamoyl-benzyl)-5-isopropyl-N-(4-methoxy-phenyl)-benzamide], in data set [1], the HSP70 expression result is given as “an increase in HSP70 expression”; the “protein levels of client proteins (Src, AKT, Rb and FAK)” value is “a downregulation of the protein levels of client proteins”. Moreover, in data set [2] (setting [6]), the body weight result is reported as “no significant change in body weight” and the toxicity to mice result was “not significantly toxic”. Further, the “treatment effect on CT26 tumor, agent alone” value in [2] (Compound 75 50 mg/kg/2 days or Anti-PD1 200 μg alone) is reported as “limited”. In addition, the “tumor growth, combined treatment with Anti-PD1” value in [2] (Compound 75 50 mg/kg/2 days plus Anti-PD1 200 μg) is “significantly inhibited tumor growth”. Also, in [3], the “percentage of central memory T cells” value is reported as “significantly increased”. The half-inhibitory concentration (IC50) on HSP90β stood at 0.0669 µM. Moreover, in data set [4] (setting [7]), the body weight result was “no significant change in body weight” and the toxicity in mice entry is reported as “no significant toxicity”. The “white blood cell, lymphocyte, red blood cell, hemoglobin and platelet counts, lymphocyte percentage” value in data set [4] (blood from heart on day 25, 10, 25, 50 mg/kg every two days, versus control group) is on record as “not significantly different”. Further, in data set [4] (immunocompetent mice), the “organ toxicity or hematotoxicity” value was “does not cause significant organ toxicity or hematotoxicity”. Moreover, the “cancer recurrence, re-inoculated with Compound 75-treated cancer cells” value in the data set with CT26 tumor recurrence (group comp.75/comp.75-tumor) is given as “only one mouse suffered cancer recurrence”. Further, the “cancer recurrence, re-inoculated with control cancer cells” value in the data set on CT26 tumor recurrence (group comp.75/control-tumor) was “only one mouse suffered cancer recurrence”. In the data set with HCT116, the IC50 is 0.27 ± 0.01 µM. Besides, in the data set on serum TGF-β and IL-2, the “serum IL-2” value is “had no effect” and the “serum TGF-β expression” value is listed as “significantly reduced”. Also, in data set [5], the “IFN-γ-induced PD-L1 and IDO expression” value is “downregulated PD-L1 and IDO expression”. Further, on HDAC3, the IC50 was 1.37 µM.
